Converted amounts (≈) assume the structure as drawn. Where two headings read alike, the source gives them in different places.
How the values were obtained:
Helicobacter pylori = assay: Inhibitory effect on proliferation of Helicobacter pylori (MIC, Brucella agar); type: cell-based
H+/K+-ATPase = H+/K+-ATPase (Rattus norvegicus, UniProt P09626); assay: H+/K+-ATPase activity inhibition test; details: for IC50 for H+/K+-ATPase: stomach enzyme, pre-incubated 37° C. 30 minutes, pH 7.4
[1] = H. pylori strain ATCC 43504, 37° C., 3 days
[2] = H. pylori strain Clinical 4, 37° C., 3 days
[3] = H. pylori strain Clinical 82516, 37° C., 3 days
[4] = H. pylori strain Clinical 82548, 37° C., 3 days
[5] = H. pylori strain NCTC 11637, 37° C., 3 days
[6] = H. pylori strain NCTC 11638, 37° C., 3 days

H+/K+-ATPase, sequence (P09626 whole entry): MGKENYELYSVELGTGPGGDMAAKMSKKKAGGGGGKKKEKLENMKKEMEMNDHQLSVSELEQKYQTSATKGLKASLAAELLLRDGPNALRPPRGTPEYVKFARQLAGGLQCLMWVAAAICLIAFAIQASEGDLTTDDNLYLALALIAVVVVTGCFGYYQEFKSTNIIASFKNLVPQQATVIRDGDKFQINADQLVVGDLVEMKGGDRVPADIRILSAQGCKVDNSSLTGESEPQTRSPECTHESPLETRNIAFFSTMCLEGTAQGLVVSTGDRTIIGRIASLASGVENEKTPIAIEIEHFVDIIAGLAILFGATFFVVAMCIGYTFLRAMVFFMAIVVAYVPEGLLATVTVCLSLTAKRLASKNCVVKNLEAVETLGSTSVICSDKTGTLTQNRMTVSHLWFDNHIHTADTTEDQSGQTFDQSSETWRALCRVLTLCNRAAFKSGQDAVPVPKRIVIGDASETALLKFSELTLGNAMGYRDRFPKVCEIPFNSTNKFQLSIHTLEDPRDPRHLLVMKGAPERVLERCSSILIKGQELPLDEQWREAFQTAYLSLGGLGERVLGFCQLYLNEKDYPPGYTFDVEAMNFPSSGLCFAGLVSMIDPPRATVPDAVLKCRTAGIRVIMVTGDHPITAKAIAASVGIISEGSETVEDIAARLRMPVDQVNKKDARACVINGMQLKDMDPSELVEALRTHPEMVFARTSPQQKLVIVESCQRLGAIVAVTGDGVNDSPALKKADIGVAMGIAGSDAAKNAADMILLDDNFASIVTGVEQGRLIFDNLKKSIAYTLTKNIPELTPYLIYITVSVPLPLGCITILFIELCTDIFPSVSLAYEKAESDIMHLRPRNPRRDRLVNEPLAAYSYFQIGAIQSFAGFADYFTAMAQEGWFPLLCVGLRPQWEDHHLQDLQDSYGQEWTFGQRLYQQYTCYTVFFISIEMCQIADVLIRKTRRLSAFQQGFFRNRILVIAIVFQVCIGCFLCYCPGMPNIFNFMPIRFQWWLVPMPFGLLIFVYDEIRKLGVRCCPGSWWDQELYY
H+/K+-ATPase, sequence (P18598 whole entry partner): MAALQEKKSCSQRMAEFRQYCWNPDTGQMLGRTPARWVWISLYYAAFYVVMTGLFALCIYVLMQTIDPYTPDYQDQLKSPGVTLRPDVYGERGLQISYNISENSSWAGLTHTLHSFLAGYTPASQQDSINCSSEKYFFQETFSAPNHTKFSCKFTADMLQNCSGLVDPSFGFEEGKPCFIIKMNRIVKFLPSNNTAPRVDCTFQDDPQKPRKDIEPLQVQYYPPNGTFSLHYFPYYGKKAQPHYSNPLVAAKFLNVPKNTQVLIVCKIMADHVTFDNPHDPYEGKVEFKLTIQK

SMILES	IC50 for H+/K+-ATPase (H+/K+-ATPase)	MIC ATCC 43504 (Helicobacter pylori; [1])	MIC Clinical 4 (Helicobacter pylori; [2])	MIC Clinical 82516 (Helicobacter pylori; [3])	MIC Clinical 82548 (Helicobacter pylori; [4])	MIC NCTC 11637 (Helicobacter pylori; [5])	MIC NCTC 11638 (Helicobacter pylori; [6])	further results
CC1(C)CCC[C@](C)([C@H]2CC[C@]3(C)[C@@H]2[C@H](O)C[C@@H]2[C@@]4(C)CC[C@H](O)C(C)(C)[C@@H]4[C@@H](O)C[C@]23C)O1 [panaxatriol]	–	–	–	–	–	–	–	MIC (Helicobacter pylori; Helicobacter pylori, strain not specified, read-out: MIC): 50 µg/mL (≈ 105 µM)
COc1ccc2[nH]c([S+]([O-])Cc3ncc(C)c(OC)c3C)nc2c1 (centres unmarked) [Omeprazole, reference compound]	–	–	–	–	–	–	–	IC50 (H+/K+-ATPase): 57.9 µM
CC(C)=CCC[C@@](C)(O)[C@H]1CC[C@]2(C)[C@@H]1[C@H](O)C[C@@H]1[C@@]3(C)CC[C@H](O)C(C)(C)[C@@H]3CC[C@]12C [protopanaxadiol]	–	–	–	–	–	–	–	MIC (Helicobacter pylori; strain not specified): 50 µg/mL (≈ 109 µM)
CC(C)=CCC[C@](C)(O[C@@H]1O[C@H](CO)[C@@H](O)[C@H](O)[C@H]1O)[C@H]1CC[C@]2(C)[C@@H]1[C@H](O)C[C@@H]1[C@@]3(C)CC[C@H](O)C(C)(C)[C@@H]3CC[C@]12C [Compound K, reference compound]	>1000 µg/mL	>100 µg/mL	>100 µg/mL	>100 µg/mL	>100 µg/mL	>100 µg/mL	>100 µg/mL	–
CC(C)=CCC[C@](C)(O[C@@H]1O[C@H](CO[C@@H]2OC[C@H](O)[C@H](O)[C@H]2O)[C@@H](O)[C@H](O)[C@H]1O)[C@H]1CC[C@]2(C)[C@@H]1[C@H](O)C[C@@H]1[C@@]3(C)CC[C@H](O[C@@H]4O[C@H](CO)[C@@H](O)[C@H](O)[C@H]4O[C@@H]4O[C@H](CO)[C@@H](O)[C@H](O)[C@H]4O)C(C)(C)[C@@H]3CC[C@]12C [Ginsenoside Rb2, reference compound]	>1000 µg/mL	>100 µg/mL	>100 µg/mL	>100 µg/mL	>100 µg/mL	>100 µg/mL	>100 µg/mL	–
CC(C)=CCC[C@](C)(O)[C@H]1CC[C@]2(C)[C@@H]1[C@H](O)C[C@@H]1[C@@]3(C)CC[C@H](O)C(C)(C)[C@@H]3[C@@H](O[C@@H]3O[C@H](CO)[C@@H](O)[C@H](O)[C@H]3O)C[C@]12C [Ginsenoside Rh1]	>1000 µg/mL	>100 µg/mL	>100 µg/mL	>100 µg/mL	>100 µg/mL	>100 µg/mL	>100 µg/mL	–
CC(C)=CCC[C@](C)(O)[C@H]1CC[C@]2(C)[C@@H]1[C@H](O)C[C@@H]1[C@@]3(C)CC[C@H](O)C(C)(C)[C@@H]3CC[C@]12C [20(S)-protopanaxadiol]	>1000 µg/mL	50 µg/mL (≈ 109 µM)	50 µg/mL (≈ 109 µM)	50 µg/mL (≈ 109 µM)	50 µg/mL (≈ 109 µM)	50 µg/mL (≈ 109 µM)	50 µg/mL (≈ 109 µM)	inhibiting activity of proliferation of Helicobacter strain (Helicobacter pylori; result in words): potent inhibiting activity
CC(C)=CCC[C@](C)(O)[C@H]1CC[C@]2(C)[C@@H]1[C@H](O)C[C@@H]1[C@@]3(C)CC[C@H](O[C@@H]4O[C@H](CO)[C@@H](O)[C@H](O)[C@H]4O[C@@H]4O[C@H](CO)[C@@H](O)[C@H](O)[C@H]4O)C(C)(C)[C@@H]3CC[C@]12C [20(S)-ginsenoside Rg3]	600 µg/mL	200 µg/mL (≈ 255 µM)	200 µg/mL (≈ 255 µM)	200 µg/mL (≈ 255 µM)	200 µg/mL (≈ 255 µM)	200 µg/mL (≈ 255 µM)	200 µg/mL (≈ 255 µM)	–
CC(C)=CCC[C@@](C)(O)[C@H]1CC[C@]2(C)[C@@H]1[C@H](O)C[C@@H]1[C@@]3(C)CC[C@H](O)C(C)(C)[C@@H]3CC[C@]12C [20(R)-protopanaxadiol]	–	50 µg/mL (≈ 109 µM)	50 µg/mL (≈ 109 µM)	50 µg/mL (≈ 109 µM)	50 µg/mL (≈ 109 µM)	50 µg/mL (≈ 109 µM)	50 µg/mL (≈ 109 µM)	–
CC(C)=CCC[C@](C)(O)[C@H]1CC[C@]2(C)[C@@H]1[C@H](O)C[C@@H]1[C@@]3(C)CC[C@H](O[C@@H]4O[C@H](CO)[C@@H](O)[C@H](O)[C@H]4O)C(C)(C)[C@@H]3CC[C@]12C [20(S)-ginsenoside Rh2]	500 µg/mL	100 µg/mL (≈ 161 µM)	100 µg/mL (≈ 161 µM)	100 µg/mL (≈ 161 µM)	100 µg/mL (≈ 161 µM)	100 µg/mL (≈ 161 µM)	100 µg/mL (≈ 161 µM)	–
CC(C)=CCC[C@](C)(O[C@@H]1O[C@H](CO[C@@H]2O[C@@H](CO)[C@H](O)[C@H]2O)[C@@H](O)[C@H](O)[C@H]1O)[C@H]1CC[C@]2(C)[C@@H]1[C@H](O)C[C@@H]1[C@@]3(C)CC[C@H](O[C@@H]4O[C@H](CO)[C@@H](O)[C@H](O)[C@H]4O[C@@H]4O[C@H](CO)[C@@H](O)[C@H](O)[C@H]4O)C(C)(C)[C@@H]3CC[C@]12C [Ginsenoside Rc]	–	–	–	–	–	–	–	IC50 (H+/K+-ATPase): > 927 µM; MIC (Helicobacter pylori; Helicobacter pylori, 72 h, H. pylori strain Clinical 4, 37° C., 3 days, read-out: MIC Clinical 4): > 100 µg/mL; MIC (Helicobacter pylori; Helicobacter pylori, 72 h, H. pylori strain Clinical 82516, 37° C., 3 days, read-out: MIC Clinical 82516): > 100 µg/mL; MIC (Helicobacter pylori; Helicobacter pylori, 72 h, H. pylori strain Clinical 82548, 37° C., 3 days, read-out: MIC Clinical 82548): > 100 µg/mL; MIC (Helicobacter pylori; Helicobacter pylori, ATCC43504, 72 h, H. pylori strain ATCC 43504, 37° C., 3 days, read-out: MIC ATCC 43504): > 100 µg/mL; MIC (Helicobacter pylori; Helicobacter pylori, NCTC11637, 72 h, H. pylori strain NCTC 11637, 37° C., 3 days, read-out: MIC NCTC 11637): > 100 µg/mL; MIC (Helicobacter pylori; Helicobacter pylori, NCTC11638, 72 h, H. pylori strain NCTC 11638, 37° C., 3 days, read-out: MIC NCTC 11638): > 100 µg/mL
CC(C)=CCC[C@](C)(O)[C@H]1CC[C@]2(C)[C@@H]1[C@H](O)C[C@@H]1[C@@]3(C)CC[C@H](O)C(C)(C)[C@@H]3[C@@H](O)C[C@]12C [Protopanaxatriol]	–	50 µg/mL (≈ 105 µM)	50 µg/mL (≈ 105 µM)	50 µg/mL (≈ 105 µM)	50 µg/mL (≈ 105 µM)	50 µg/mL (≈ 105 µM)	50 µg/mL (≈ 105 µM)	–
CC(C)=CCC[C@](C)(O)[C@H]1CC[C@]2(C)[C@@H]1[C@H](O)C[C@@H]1[C@@]3(C)CC[C@H](O[C@@H]4O[C@H](CO)[C@@H](O)[C@H](O)[C@H]4O[C@@H]4O[C@H](CO)[C@@H](O)[C@H](O)[C@H]4O)C(C)(C)[C@@H]3CC[C@]12C [20(R)-ginsenoside Rg3]	700 µg/mL	200 µg/mL (≈ 255 µM)	200 µg/mL (≈ 255 µM)	200 µg/mL (≈ 255 µM)	200 µg/mL (≈ 255 µM)	200 µg/mL (≈ 255 µM)	200 µg/mL (≈ 255 µM)	–
CC(C)=CCC[C@@](C)(O)[C@H]1CC[C@]2(C)[C@@H]1[C@H](O)C[C@@H]1[C@@]3(C)CC[C@H](O[C@@H]4O[C@H](CO)[C@@H](O)[C@H](O)[C@H]4O)C(C)(C)[C@@H]3CC[C@]12C [20(R)-ginsenoside Rh2]	500 µg/mL	100 µg/mL (≈ 161 µM)	100 µg/mL (≈ 161 µM)	100 µg/mL (≈ 161 µM)	100 µg/mL (≈ 161 µM)	100 µg/mL (≈ 161 µM)	100 µg/mL (≈ 161 µM)	–
CC(C)=CCC[C@](C)(O[C@@H]1O[C@H](CO[C@@H]2O[C@H](CO)[C@@H](O)[C@H](O)[C@H]2O)[C@@H](O)[C@H](O)[C@H]1O)[C@H]1CC[C@]2(C)[C@@H]1[C@H](O)C[C@@H]1[C@@]3(C)CC[C@H](O[C@@H]4O[C@H](CO)[C@@H](O)[C@H](O)[C@H]4O[C@@H]4O[C@H](CO)[C@@H](O)[C@H](O)[C@H]4O)C(C)(C)[C@@H]3CC[C@]12C [Ginsenoside Rb1]	>1000 µg/mL	>100 µg/mL	>100 µg/mL	>100 µg/mL	>100 µg/mL	>100 µg/mL	>100 µg/mL	–
